Test results published in patent publication US10450311B2, “Pesticidally active heterocyclic derivatives with sulphur containing substituents” (Syngenta Participations AG, priority 2014, dated 2019).

Assays:
Assay type in all cases: in vivo
[1] = tested on: Spodoptera littoralis (Egyptian Cotton Leaf Worm); assay: Activity against Spodoptera littoralis, compound in agar taken up by lettuce; conditions: 144 h, test rate of 12.5 ppm, lettuce root uptake, 6 days after infestation, read-out: effect in at least one of the three categories (mortality, anti-feedancy, or growth inhibition)
Source text: Example B10: Activity Against Spodoptera littoralis (Egyptian Cotton Leaf Worm)
Test compounds were applied by pipette from 10′000 ppm DMSO stock solutions into 24-well plates and mixed with agar. Lettuce seeds were placed on the agar and the multi well plate was closed by another plate which contains also agar. After 7 days the roots have absorbed the compound and the lettuce has grown into the lid plate. The lettuce leafs were now cut off into the lid plate. Spodoptera eggs were pipetted through a plastic stencil on a humid gel blotting paper and the plate closed with it. The samples were assessed for mortality, anti-feedant effect and growth inhibition in comparison to untreated samples 6 days after infestation.

[2] = tested on: Diabrotica balteata (Corn Root Worm); assay: Activity against Diabrotica balteata, sprayed maize sprouts; conditions: 96 h, application rate of 200 ppm, larvae on maize sprouts, 4 days after infestation
Procedure: Example B2: Activity Against Diabrotica balteata (Corn Root Worm)
Maize sprouts, placed on an agar layer in 24-well microtiter plates were treated with aqueous test solutions prepared from 10′000 ppm DMSO stock solutions by spraying. After drying, the plates were infested with […] (6 to 10 per well). The samples were assessed for mortality 4 days after infestation.

[3] = tested on: Euschistus heros (Neotropical Brown Stink Bug); assay: Activity against Euschistus heros, sprayed soybean leaf; conditions: 120 h, application rate of 200 ppm, N-2 nymphs on soybean leaf, 5 days after infestation
Procedure: Example B3: Activity Against Euschistus heros (Neotropical Brown Stink Bug)
Soybean leaf on agar in 24-well microtiter plates were sprayed with aqueous test solutions prepared from 10′000 ppm DMSO stock solutions. After drying the leaf were infested with N-2 nymphs. The samples were assessed for mortality 5 days after infestation.

[4] = tested on: Plutella xylostella (Diamond Back Moth); assay: Activity against Plutella xylostella, treated artificial diet; conditions: 120 h, application rate of 200 ppm, L2 larvae on artificial diet, 5 days after infestation, read-out: effect in at least one of the two categories (mortality or growth inhibition)
Procedure: Example B8: Activity Against Plutella xylostella (Diamond Back Moth)
24-well microtiter plates with artificial diet were treated with aqueous test solutions prepared from 10′000 ppm DMSO stock solutions by pipetting. After drying, the plates were infested with L2 larvae (10 to 15 per well). The samples were assessed for mortality and growth inhibition in comparison to untreated samples 5 days after infestation.

[5] = tested on: Spodoptera littoralis (Egyptian Cotton Leaf Worm); assay: Activity against Spodoptera littoralis, sprayed cotton leaf discs; conditions: foliar, 72 h, application rate of 200 ppm, L1 larvae on cotton leaf discs, 3 days after infestation, read-out: control (at least one of mortality, anti-feedant effect, growth inhibition)
Procedure: Example B9: Activity Against Spodoptera littoralis (Egyptian Cotton Leaf Worm)
Cotton leaf discs were placed on agar in 24-well microtiter plates and sprayed with aqueous test solutions prepared from 10′000 ppm DMSO stock solutions. After drying the leaf discs were infested with five L1 larvae. The samples were assessed for mortality, anti-feedant effect, and growth inhibition in comparison to untreated samples 3 days after infestation. Control of Spodoptera littoralis by a test sample is when at least one of mortality, anti-feedant effect, and growth inhibition is higher than the untreated sample.

[6] = tested on: Myzus persicae (Green Peach Aphid); assay: Activity against Myzus persicae, sprayed sunflower leaf discs; conditions: foliar, 144 h, application rate of 200 ppm, aphid population of mixed ages on sunflower leaf discs, 6 days after infestation
Procedure: Example B5: Activity Against Myzus persicae (Green Peach Aphid)
Sunflower leaf discs were placed on agar in a 24-well microtiter plate and sprayed with aqueous test solutions prepared from 10′000 ppm DMSO stock solutions. After drying, the leaf discs were infested with an aphid population of mixed ages. The samples were assessed for mortality 6 days after infestation.

[7] = tested on: Spodoptera littoralis (Egyptian Cotton Leaf Worm); assay: Activity against Spodoptera littoralis, systemic activity; conditions: 144 h, test rate of 12.5 ppm, in agar, lettuce root uptake, 6 days after infestation
Source text: Example B11: Activity Against Spodoptera littoralis (Egyptian Cotton Leaf Worm), Systemic Activity
Test compounds were applied by pipette from 10′000 ppm DMSO stock solutions into 24-well plates and mixed with agar. Lettuce seeds were placed on the agar and the multi well plate was closed by another plate which contains also agar. After 7 days the roots have absorbed the compound and the lettuce has grown into the lid plate. The lettuce leafs were now cut off into the lid plate. Spodoptera eggs were pipetted through a plastic stencil on a humid gel blotting paper and the plate closed with it. The samples were assessed for mortality 6 days after infestation.

[8] = tested on: Aedes aegypti (Yellow Fever Mosquito); assay: whole plant or invertebrate; conditions: 48 h, test rate of 5 ppm, L2 larvae in 96-well plates, incubation period of 2 days, read-out: effect in at least one of the two categories (mortality or growth inhibition)
Procedure: Example B14: Activity Against Aedes aegypti (Yellow Fever Mosquito)
10 to 15 Aedes larvae (L2) together with a nutrition mixture were placed in 96-well microtiter plates. Test compounds were pipetted into the wells. After an incubation period of 2 days insects were assessed for mortality and growth inhibition.

CCSc1cc(-n2cc(C(F)(F)F)cn2)cnc1-c1nc2cc(C(F)(F)F)n(C)c(=O)c2n1C [Compound A24, 2-[3-ethylsulfanyl-5-[4-(trifluoromethyl)pyrazol-1-yl]-2-pyridyl]-3,5-dimethyl-6-(trifluoromethyl)imidazo[4,5-c]pyridin-4-one]
≥ 80%: percent control (mortality, anti-feedancy or growth inhibition) at 12.5 ppm [1]

CCS(=O)(=O)c1cc(-c2ccc(Cl)cc2)ccc1-c1nc2cc(C(F)(F)F)n(C)c(=O)c2n1C [Compound A72, 2-[4-(4-chlorophenyl)-2-ethylsulfonyl-phenyl]-3,5-dimethyl-6-(trifluoromethyl)imidazo[4,5-c]pyridin-4-one]
≥ 80%: mortality at 200 ppm [2] | mortality at 200 ppm [3] | percent effect (mortality or growth inhibition) at 200 ppm [4] | percent control (mortality, anti-feedant effect or growth inhibition) at 200 ppm [5]

CCS(=O)(=O)c1cc(Br)cnc1-c1nc2cc(C(F)(F)F)n(C)c(=O)c2n1C [Compound A21, 2-[5-bromo-3-ethylsulfonyl-2-pyridyl]-3,5-dimethyl-6-(trifluoromethyl)imidazo[4,5-c]pyridin-4-one]
≥ 80%: mortality at 200 ppm [2] | mortality at 200 ppm [3] | mortality at 200 ppm [6] | percent effect (mortality or growth inhibition) at 200 ppm [4] | percent control (mortality, anti-feedant effect or growth inhibition) at 200 ppm [5] | percent control (mortality, anti-feedancy or growth inhibition) at 12.5 ppm [1] | mortality at 12.5 ppm [7]

CCSc1cc(-n2ccc(C(F)(F)F)n2)cnc1-c1nc2cc(C(F)(F)F)n(C)c(=O)c2n1C [Compound A26, 2-[3-ethylsulfanyl-5-[3-(trifluoromethyl)pyrazol-1-yl]-2-pyridyl]-3,5-dimethyl-6-(trifluoromethyl)imidazo[4,5-c]pyridin-4-one]
≥ 80%: percent control (mortality, anti-feedant effect or growth inhibition) at 200 ppm [5]

CCS(=O)(=O)c1cc(-c2ccc(C(F)(F)F)cc2)cnc1-c1nc2cc(Br)c(=O)n(C)c2n1C [Compound B3]
≥ 80%: mortality at 200 ppm [2] | mortality at 200 ppm [3] | mortality at 200 ppm [6] | percent effect (mortality or growth inhibition) at 200 ppm [4] | percent control (mortality, anti-feedant effect or growth inhibition) at 200 ppm [5]

CCSc1cc(-c2ccc(C(F)(F)F)cc2)cnc1-c1nc2cc(C(F)(F)F)c(=O)n(C)c2n1C [Compound B5, 2-[3-ethylsulfanyl-5-[4-(trifluoromethyl)phenyl]-2-pyridyl]-3,4-dimethyl-6-(trifluoromethyl)imidazo[4,5-b]pyridin-5-one]
≥ 80%: mortality at 200 ppm [2] | mortality at 200 ppm [3] | percent control (mortality, anti-feedant effect or growth inhibition) at 200 ppm [5]

CCS(=O)(=O)c1cc(-c2cc(C(F)(F)F)ccn2)cnc1-c1nc2cc(C(F)(F)F)n(C)c(=O)c2n1C [Compound A42]
≥ 80%: mortality at 200 ppm [2] | mortality at 200 ppm [3] | mortality at 200 ppm [6] | percent effect (mortality or growth inhibition) at 200 ppm [4] | percent control (mortality, anti-feedant effect or growth inhibition) at 200 ppm [5] | percent control (mortality, anti-feedancy or growth inhibition) at 12.5 ppm [1] | mortality at 12.5 ppm [7] | percent effect (mortality or growth inhibition) at 5 ppm [8]

CCS(=O)(=O)c1cc(-c2ncccn2)ccc1-c1nc2cc(C(F)(F)F)n(C)c(=O)c2n1C [Compound A71, 2-(2-ethylsulfonyl-4-pyrimidin-2-yl-phenyl)-3,5-dimethyl-6-(trifluoromethyl)imidazo[4,5-c]pyridin-4-one]
≥ 80%: mortality at 200 ppm [3] | mortality at 200 ppm [6] | percent effect (mortality or growth inhibition) at 200 ppm [4] | percent control (mortality, anti-feedant effect or growth inhibition) at 200 ppm [5]

CCS(=O)(=O)c1cc(-c2ccc(C(F)(F)F)cc2)cnc1-c1nc2cc(C(F)(F)F)n(C)c(=O)c2n1C [Compound A22, 2-[3-ethylsulfonyl-5-[4-(trifluoromethyl)phenyl]-2-pyridyl]-3,5-dimethyl-6-(trifluoromethyl)imidazo[4,5-c]pyridin-4-one]
≥ 80%: mortality at 200 ppm [2] | mortality at 200 ppm [3] | mortality at 200 ppm [6] | percent effect (mortality or growth inhibition) at 200 ppm [4] | percent control (mortality, anti-feedant effect or growth inhibition) at 200 ppm [5] | percent control (mortality, anti-feedancy or growth inhibition) at 12.5 ppm [1] | mortality at 12.5 ppm [7] | percent effect (mortality or growth inhibition) at 5 ppm [8]

CCS(=O)(=O)c1cc(-n2ccc(C(F)(F)F)n2)cnc1-c1nc2cc(C(F)(F)F)n(C)c(=O)c2n1C [Compound A27]
≥ 80%: percent control (mortality, anti-feedant effect or growth inhibition) at 200 ppm [5]

CCS(=O)(=O)c1cc(-c2ccc(C#N)cc2)cnc1-c1nc2cc(C(F)(F)F)n(C)c(=O)c2n1C [Compound A41, 4-[6-[3,5-dimethyl-4-OXO-6-(trifluoromethyl)imidazo[4,5-c]pyridin-2-yl]-5-ethylsulfonyl-3-pyridyl]benzonitrile]
≥ 80%: mortality at 200 ppm [2] | mortality at 200 ppm [3] | mortality at 200 ppm [6] | percent effect (mortality or growth inhibition) at 200 ppm [4] | percent control (mortality, anti-feedant effect or growth inhibition) at 200 ppm [5] | percent control (mortality, anti-feedancy or growth inhibition) at 12.5 ppm [1] | mortality at 12.5 ppm [7] | percent effect (mortality or growth inhibition) at 5 ppm [8]

CCS(=O)(=O)c1cc(-c2ccc(C(F)(F)F)cc2)ccc1-c1nc2cc(C(F)(F)F)n(C)c(=O)c2n1C [Compound A70, 2-[2-ethylsulfonyl-4-[4-(trifluoromethyl)phenyl]phenyl]-3,5-dimethyl-6-(trifluoromethyl)imidazo[4,5-c]pyridin-4-one]
≥ 80%: mortality at 200 ppm [2] | mortality at 200 ppm [3] | percent effect (mortality or growth inhibition) at 200 ppm [4] | percent control (mortality, anti-feedant effect or growth inhibition) at 200 ppm [5] | percent effect (mortality or growth inhibition) at 5 ppm [8]

CCS(=O)(=O)c1cc(-c2cc(F)cc(F)c2)cnc1-c1nc2cc(C(F)(F)F)n(C)c(=O)c2n1C [Compound A28, 2-[5-(3,5-difluorophenyl)-3-ethylsulfonyl-2-pyridyl]-3,5-dimethyl-6-(trifluoromethyl)imidazo[4,5-c]pyridin-4-one]
≥ 80%: mortality at 200 ppm [2] | mortality at 200 ppm [3] | percent effect (mortality or growth inhibition) at 200 ppm [4] | percent control (mortality, anti-feedant effect or growth inhibition) at 200 ppm [5] | percent control (mortality, anti-feedancy or growth inhibition) at 12.5 ppm [1] | mortality at 12.5 ppm [7] | percent effect (mortality or growth inhibition) at 5 ppm [8]
